From ChEMBL document CHEMBL1145862, “Identification of "latent hits" in compound screening collections” (J Med Chem, 2003)

How the values were obtained:
Estrogen receptor = target: T1, Estrogen receptor (Homo sapiens, UniProt P03372); test: Transcriptional agonist activity in Chinese hamster ovary cells expressing human Estrogen Receptor alpha; assay type: functional, cell-based
T1 sequence (P03372 whole entry): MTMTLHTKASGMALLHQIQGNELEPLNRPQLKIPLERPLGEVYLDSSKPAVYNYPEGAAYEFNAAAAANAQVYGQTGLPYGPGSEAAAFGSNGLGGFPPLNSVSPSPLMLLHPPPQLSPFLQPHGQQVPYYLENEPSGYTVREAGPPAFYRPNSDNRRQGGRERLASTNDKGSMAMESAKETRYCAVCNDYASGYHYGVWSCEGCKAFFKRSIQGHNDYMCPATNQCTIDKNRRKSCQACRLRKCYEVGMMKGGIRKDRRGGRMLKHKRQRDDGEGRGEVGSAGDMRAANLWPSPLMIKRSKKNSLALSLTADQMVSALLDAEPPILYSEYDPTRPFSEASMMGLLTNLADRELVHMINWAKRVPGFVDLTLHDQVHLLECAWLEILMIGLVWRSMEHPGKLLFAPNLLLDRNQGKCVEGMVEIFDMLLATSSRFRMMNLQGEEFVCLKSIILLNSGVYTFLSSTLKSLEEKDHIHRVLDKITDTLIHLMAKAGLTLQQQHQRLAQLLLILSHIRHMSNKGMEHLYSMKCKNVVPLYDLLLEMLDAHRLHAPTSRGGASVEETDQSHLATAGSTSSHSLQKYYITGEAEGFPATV

[1] = target: T2, Estrogen receptor (Homo sapiens) (UniProt P03372); test: Percent change in 17-beta-estradiol mediated transcriptional activation in CHO cells expressing human estrogen receptor alpha at 10e-6 M; assay type: functional, cell-based
T2 sequence (whole entry): T1 sequence (P03372 whole entry)

[2] = target: T2, Estrogen receptor (Homo sapiens); test: Relative binding affinity for human estrogen receptor alpha expressed in CHO cells compared to Diethylstilbestrol Methyl Ether; assay type: cell-based
[3] = target: T2, Estrogen receptor (Homo sapiens); settings: CHO
[4] = target: T2, Estrogen receptor (Homo sapiens); test: Relative Binding Affinity for human estrogen receptor alpha expressed in CHO cells compared to Diethylstilbestrol Dimethyl Ether; assay type: cell-based

| SMILES | EC50 (Estrogen receptor) | other results |
| --- | --- | --- |
| COc1ccc(-c2cccc(-c3ccc(OC)cc3)c2)cc1 | > 10000 nM | HTS data [1]: 7 |
| CC/C(=C(/CC)c1ccc(OC)cc1)c1ccc(O)cc1 | – | RBA data [2]: 1.31 |
| CC1C(=O)c2cc(O)ccc2OC1c1ccc(O)cc1 (configuration not stated) | 4 nM | – |
| COc1ccc2c(c1)CC[C@@H]1[C@@H]2CC[C@]2(C)[C@@H](OC)CC[C@@H]12 | – | HTS data [3]: 0 |
| Oc1ccc(-c2ccc(-c3ccc(O)cc3)cc2)cc1 | 1200 nM | – |
| Oc1ccc(-c2cc(-c3ccc(O)cc3)cc(-c3ccc(O)cc3)c2)cc1 | 80 nM | – |
| CC/C(=C(/CC)c1ccc(OC)cc1)c1ccc(OC)cc1 | – | RBA data [4]: -1.25 |
| Oc1ccc(-c2cccc(-c3ccc(O)cc3)c2)cc1 | 800 nM | – |
| COc1ccc2c(c1)CC[C@@H]1[C@@H]2CC[C@]2(C)[C@@H](O)CC[C@@H]12 | – | HTS data [3]: 76 |
| COc1ccc(C2Oc3ccc(O)cc3C(=O)C2C)cc1 (configuration not stated) | > 10000 nM | HTS data [1]: 67 |
